Measurements: patent publication US10047083B2, “Dihydropyrimidinoisoquinolinones and pharmaceutical compositions thereof for the treatment of inflammatory disorders” (GALAPAGOS NV, priority 2011, dated 2018)
Blank lines part the entries; values can stand above or below the compound they belong to.

Columns and labels:
GPR84 [1] = biological target: T1, GPR84 (Homo sapiens, UniProt Q9NQS5); details: Wang et al. (2006); WO 2007/027661A2; cited from earlier work
T1 construct: expressed in transfected cells; membranes used

human neutrophils [2] = assay: Human neutrophil migration assay (embelin-induced); format: cell-based
[3] = tested on: RAW264.7 murine macrophage-like cells; details: RAW264.7 cells stimulated with LPS; cited from earlier work
GPR84 [4] = biological target: T1, GPR84; assay: GTPγS binding assay (GPR84); format: biochemical; details: membranes from stable cell line over expressing GPR84; 3,3′ di indolylmethane at EC80
In short: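 Membranes (20 μg/well) from a stable GPR84-overexpressing line, pre-incubated with 0.1 μM GDP for 15 min at 4° C, mixed with 0.1 nM [35S]GTPγS and WGA SpA beads in 20 mM HEPES pH 7.4, 5 mM MgCl2, 250 mM NaCl, 0.05% BSA, 75 ug/mL saponin; 90 min at room temperature, then scintillation counting.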

human neutrophils [5] = assay: Human neutrophil migration assay (embelin-induced); format: cell-based; details: neutrophils from human buffy coat, 30 min compound pre-incubation, migration towards embelin at EC80 for 1 h, ATPlite readout, read-out: human neutrophil migration inhibition (Neutrophils)

T1 sequence (Q9NQS5 whole entry): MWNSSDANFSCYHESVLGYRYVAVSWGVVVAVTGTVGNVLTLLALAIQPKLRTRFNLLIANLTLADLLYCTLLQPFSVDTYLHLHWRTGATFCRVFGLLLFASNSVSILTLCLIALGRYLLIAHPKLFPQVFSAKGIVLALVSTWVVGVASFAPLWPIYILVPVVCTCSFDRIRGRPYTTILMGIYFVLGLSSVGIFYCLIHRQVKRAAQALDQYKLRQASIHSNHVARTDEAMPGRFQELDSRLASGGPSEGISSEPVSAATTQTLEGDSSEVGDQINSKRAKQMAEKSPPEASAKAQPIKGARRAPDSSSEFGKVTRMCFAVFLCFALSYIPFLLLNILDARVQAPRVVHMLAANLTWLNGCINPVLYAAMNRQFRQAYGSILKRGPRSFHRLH

Structure (SMILES): c1ccc2c(Cc3c[nH]c4ccccc34)c[nH]c2c1 [3,3′ di-indolylmethane]
- GPR84 agonist activity (GPR84 [1]): some GPR84 agonist activity

Structure (SMILES): CCCCCCCCCC(=O)[O-].[Na+] [sodiumdecanoate]
- induction of neutrophil chemotaxis by GPR84 agonists (human neutrophils [2]): induce neutrophil chemo taxis

Structure (SMILES): CCCCCCCCCC(=O)O [capric acid]
- secretion of interleukin-12 p40 subunit (IL-12 p40) [3]: dose dependently increased

Structure (SMILES): c1ccc2c(Cc3c[nH]c4ccccc34)c[nH]c2c1 [3,3′ di indolylmethane]
- induction of neutrophil chemotaxis by GPR84 agonists (human neutrophils [2]): induce neutrophil chemo taxis

Structure (SMILES): CCCCCCCCCCCC(=O)O [lauric acid]
- secretion of interleukin-12 p40 subunit (IL-12 p40) [3]: dose dependently increased

Structure (SMILES): CCCCCCCCCCC(=O)O [undecanoic acid]
- secretion of interleukin-12 p40 subunit (IL-12 p40) [3]: dose dependently increased

- IC50 (GPR84 [4]): 0.01 to 100 nM
- IC50 (human neutrophils [5]): 0.01 to 100 nM
Structure (SMILES): O=c1nc(OC[C@@H]2COCCO2)cc2n1CCc1cc(CCC3CC3)ccc1-2 [Compound 123, 9-(2-cyclopropyl-ethyl)-2-((S)-1-[1,4]dioxan-2-ylmethoxy)-6,7-dihydropyrimido[6,1-a]isoquinolin-4-one]
